Columns and labels:
[1] = test system: C. formosanus workers and soldiers; experiment: Topical application toxicity assay; type: in vivo, Coptotermes formosanus
Description: Dose-mortality data were analyzed using probit analysis as adapted for PC use (POLO-PC), which automatically corrected for control mortality using Abbott's transformation. See, e.g., R. M Russell et al., “POLO: a new computer program for probit analysis,” Bull. Entomol. Soc. Am., vol. 23, pp. 209-213 (1977); and LeOra Software, “POLO-PC, a user's guide to probit analysis or logit analysis” (1987). The LD50s of workers and soldiers from four tested colonies (y) were plotted against the average weight of tested termites (x) to establish a linear regression equation and conduct correlation analyses. Mean survival, food consumption and tunnel areas were compared among treatments using analysis of variance (ANOVA), followed by least significant difference procedures. See, SAS Institute, SAS/STAT User's Guide: version 8, SAS Institute, Inc., Cary, N.C. (1999). In two-choice assays using either treated filter paper or treated sand, the parameters measured in the two lateral sides of each treatment were compared using paired t-tests. All data were judged at α=0.05.
Acute toxicity of 2′-acetonaphthone was bioassayed using doses that ranged from 1.25 to 20 ug/termite. At stock solution of 2′-acetonaphthone was prepared ([…]). Dilutions were made by taking aliquots from the stock solution (62.5, 125, 250, 375, 500, 750, and 1000 μl), and adjusting each volume to 2 ml with acetone. A group of 20 workers or soldiers (from colonies BS, WB, E and CR) were placed in a Petri dish (6 cm×1.5 cm) and chilled on top of an ice brick (30.32 cm×17.78 cm×3.81 cm; IceBerg, Mid-Lands Chemical Company, Inc., Miami, Fla.) to slow their movement. Each termite was treated with a topical dose in 0.2 μl acetone to the dorsum of the mesothorax using a Hamilton PB 600 Repeating Dispenser equipped with a 10 μl syringe (Hamilton, Reno, Nev.). The experimental termites were treated with doses equivalent to 1.25, 2.50, 5.0, 7.5, 10.0, 15.0, and 20.0 μg/termite. Control termites were dosedwith only 0.2 μl acetone. Five replicates, each with 20 workers or 20 soldiers, were used for each dose and control. For each replicate, termites were maintained in a plastic container (5.5 cm×3.7 cm, Pioneer Pckaging Co., North Dixon, Ky.), each provided with a filter paper (Whatman #2, 55 mm diameter) wetted with 250 μl double distilled water (DDH20). The containers were covered with lids, and kept for 2 days at room temperature (26-28° C.). Daily mortality in each dish was recorded. Termites were considered dead if unable to right themselves when prodded with a fine paint brush.

[2] = test system: C. formosanus workers and soldiers; experiment: Treated wood slices as sole food source; type: in vivo, Coptotermes formosanus; conditions: colonies C and WB combined
Description: To assay the effect of 2′-acetonaphthone on termites when added to a sole food source, acute and cumulative toxicities of 2′-acetonaphthone-treated filter paper (Whatman #2) and balsa wood (Ochroma lagopus Swartz) slices (2.3 cm×4.0 cm) were evaluated. Seven concentrations (0, 1, 10, 50, 100, 500, and 1000 mg/l) were prepared in 100 ml ethanol. Six filter papers and six wood slices were soaked in each concentration for 4 h; control filter papers and wood slices were soaked only in ethanol. After treatment, the food sources were kept overnight at ambient conditions for solvent evaporation. Eighty-four plastic containers (5.5 cm diameter×3.7 cm height) were provided with 22 g of wetted sand (20 g sand (fine blasting sand #4, Cement Products Inc., Baton Rouge, La.) mixed with 2 ml DDH2O). Then either a filter paper or a wood slice was separately placed to fit on the surface of the wetted sand and wetted with DDH2O (250 μl). Into each container, fifty workers and 20 soldiers were placed on the surface of the filter paper or wood slice. For each concentration and food sourse, three replicates received termites from colony C, and three replicates received termites from colony WB. The containers were covered and incubated for 10 days at 27.4° C. and 70% RH. Containers were monitored everytwo days to ensure suitable moisture. On days 1, 5 and 10, the number of living workers and soldiers were counted. An average percent survival was calculated for each treatment. (See Tables 2 and 3).

[3] = Longevity and volatility of the eleven chemicals; type: physicochemical; conditions: among the eleven chemicals tested
C. formosanus workers = experiment: Repellency, choice of treated and untreated filter paper in three-chambered containers; type: in vivo, Coptotermes formosanus; conditions: preliminary study; 23 μg/cm^2

With `CC(=O)c1ccc2ccccc2c1` [2′-acetonaphthone] the “LD50 (95% CL)” value ([1]; colony BS, 24 hours, Soldier) was 3.24 (2.27-4.24) μg/termite, the “LD90 (95% CL)” value ([1]; colony BS, 24 hours, Soldier) was 13.60 (8.86-15.01) μg/termite and the “LD50 (95% CL)” value ([1]; colony BS, 24 hours, Worker) was 2.21 (1.91-2.49) μg/termite. For the same molecule, the “LD90 (95% CL)” value ([1]; colony BS, 24 hours, Worker) was 7.11 (6.14-8.58) μg/termite, the “LD50 (95% CL)” value ([1]; colony BS, 48 hours, Soldier) was 2.02 (1.49-2.46) μg/termite and the “LD90 (95% CL)” value ([1]; colony BS, 48 hours, Soldier) was 4.07 (3.37-5.37) μg/termite. For the same molecule, the “LD50 (95% CL)” value ([1]; colony BS, 48 hours, Worker) was 1.74 (1.49-1.96) μg/termite, the “LD90 (95% CL)” value ([1]; colony BS, 48 hours, Worker) was 4.19 (3.73-4.83) μg/termite and the “LD50 (95% CL)” value ([1]; colony CR, 24 hours, Soldier) was 3.49 (2.49-4.51) μg/termite. The “LD90 (95% CL)” value ([1]; colony CR, 24 hours, Soldier) was 8.09 (5.94-16.01) μg/termite, the “LD50 (95% CL)” value ([1]; colony CR, 24 hours, Worker) was 2.93 (2.24-3.59) μg/termite and the “LD90 (95% CL)” value ([1]; colony CR, 24 hours, Worker) was 7.23 (5.59-11.34) μg/termite. For the same molecule, the “LD50 (95% CL)” value ([1]; colony CR, 48 hours, Soldier) was 2.02 (1.48-2.48) μg/termite, the “LD90 (95% CL)” value ([1]; colony CR, 48 hours, Soldier) was 4.26 (3.45-5.92) μg/termite and the “LD50 (95% CL)” value ([1]; colony CR, 48 hours, Worker) was 2.67 (1.87-3.35) μg/termite. The “LD90 (95% CL)” value ([1]; colony CR, 48 hours, Worker) was 6.09 (4.85-8.82) μg/termite, the “LD50 (95% CL)” value ([1]; colony E, 24 hours, Soldier) was 5.12 (3.99-7.24) μg/termite and the “LD90 (95% CL)” value ([1]; colony E, 24 hours, Soldier) was 14.06 (9.51-19.26) μg/termite. For the same molecule, the “LD50 (95% CL)” value ([1]; colony E, 24 hours, Worker) was 7.24 (5.22-9.36) μg/termite, the “LD90 (95% CL)” value ([1]; colony E, 24 hours, Worker) was 19.69 (14.02-25.58) μg/termite and the “LD50 (95% CL)” value ([1]; colony E, 48 hours, Soldier) was 4.19 (3.14-6.20) μg/termite. For the same molecule, the “LD90 (95% CL)” value ([1]; colony E, 48 hours, Soldier) was 12.32 (8.23-15.32) μg/termite, the “LD50 (95% CL)” value ([1]; colony E, 48 hours, Worker) was 3.82 (2.68-5.83) μg/termite and the “LD90 (95% CL)” value ([1]; colony E, 48 hours, Worker) was 11.77 (7.66-17.79) μg/termite. The “LD50 (95% CL)” value ([1]; colony WB, 24 hours, Soldier) was 2.16 (0.56-6.23) μg/termite, the “LD90 (95% CL)” value ([1]; colony WB, 24 hours, Soldier) was 5.48 (1.42-15.81) μg/termite and the “LD50 (95% CL)” value ([1]; colony WB, 24 hours, Worker) was 1.75 (0.76-2.76) μg/termite. For the same molecule, the “LD90 (95% CL)” value ([1]; colony WB, 24 hours, Worker) was 6.33 (3.71-12.46) μg/termite, the “LD50 (95% CL)” value ([1]; colony WB, 48 hours, Soldier) was 2.17 (0.49-5.76) μg/termite and the “LD90 (95% CL)” value ([1]; colony WB, 48 hours, Soldier) was 5.59 (1.23-14.49) μg/termite. For the same molecule, the “LD50 (95% CL)” value ([1]; colony WB, 48 hours, Worker) was 1.71 (0.42-1.95) μg/termite, the “LD90 (95% CL)” value ([1]; colony WB, 48 hours, Worker) was 3.09 (2.70-3.72) μg/termite and the “48 h-LD90” value ([1]; soldiers, range over the four colonies) was 4.07-12.32 μg/soldier. The Percent survival ([2]; wood slices 1 mg/l, Day 1, Soldier) was 93.33 ± 1.67 a %, the Percent survival ([2]; wood slices 1 mg/l, Day 1, Worker) was 85.0 ± 5.29 a % and the Percent survival ([2]; wood slices 1 mg/l, Day 5, Soldier) was 60.0 ± 13.54 a %. The Percent survival ([2]; wood slices 1 mg/l, Day 5, Worker) was 55.33 ± 12.87 a %, the Percent survival ([2]; wood slices 1 mg/l, Day 10, Soldier) was 47.50 ± 11.61 a % and the Percent survival ([2]; wood slices 1 mg/l, Day 10, Worker) was 52.67 ± 12.55 a %. It also gave a Percent survival ([2]; wood slices 10 mg/l, Day 1, Soldier) of 86.67 ± 4.41 a %, a Percent survival ([2]; wood slices 10 mg/l, Day 1, Worker) of 83.33 ± 5.03 a % and a Percent survival ([2]; wood slices 10 mg/l, Day 5, Soldier) of 54.17 ± 11.14 a %. It also gave a Percent survival ([2]; wood slices 10 mg/l, Day 5, Worker) of 63.67 ± 11.13 a %, a Percent survival ([2]; wood slices 10 mg/l, Day 10, Soldier) of 46.67 ± 12.36 a % and a Percent survival ([2]; wood slices 10 mg/l, Day 10, Worker) of 50.67 ± 8.79 a %. It also gave a Percent survival ([2]; wood slices 50 mg/l, Day 1, Soldier) of 85.0 ± 5.0 a %, a Percent survival ([2]; wood slices 50 mg/l, Day 1, Worker) of 86.67 ± 5.26 a % and a Percent survival ([2]; wood slices 50 mg/l, Day 5, Soldier) of 48.33 ± 10.38 a %. The Percent survival ([2]; wood slices 50 mg/l, Day 5, Worker) was 65.0 ± 13.51 a %, the Percent survival ([2]; wood slices 50 mg/l, Day 10, Soldier) was 39.17 ± 8.41 a % and the Percent survival ([2]; wood slices 50 mg/l, Day 10, Worker) was 49.67 ± 10.23 a %. The Percent survival ([2]; wood slices 100 mg/l, Day 1, Soldier) was 90.0 ± 2.89 a %, the Percent survival ([2]; wood slices 100 mg/l, Day 1, Worker) was 88.67 ± 3.33 a % and the Percent survival ([2]; wood slices 100 mg/l, Day 5, Soldier) was 55.83 ± 11.94 a %. The Percent survival ([2]; wood slices 100 mg/l, Day 5, Worker) was 56.67 ± 12.15 a %, the Percent survival ([2]; wood slices 100 mg/l, Day 10, Soldier) was 45.0 ± 9.58 a % and the Percent survival ([2]; wood slices 100 mg/l, Day 10, Worker) was 47.67 ± 10.97 a %. It also gave a Percent survival ([2]; wood slices 500 mg/l, Day 1, Soldier) of 80.83 ± 10.44 a %, a Percent survival ([2]; wood slices 500 mg/l, Day 1, Worker) of 84.67 ± 2.41 a % and a Percent survival ([2]; wood slices 500 mg/l, Day 5, Soldier) of 17.50 ± 7.61 b %. The Percent survival ([2]; wood slices 500 mg/l, Day 5, Worker) was 54.33 ± 8.01 a %, the Percent survival ([2]; wood slices 500 mg/l, Day 10, Soldier) was 4.17 ± 2.38 b % and the Percent survival ([2]; wood slices 500 mg/l, Day 10, Worker) was 30.67 ± 9.18 a %. For the same molecule, the Percent survival ([2]; wood slices 1000 mg/l, Day 1, Soldier) was 84.17 ± 7.24 a %, the Percent survival ([2]; wood slices 1000 mg/l, Day 1, Worker) was 86.67 ± 3.53 a % and the Percent survival ([2]; wood slices 1000 mg/l, Day 5, Soldier) was 2.50 ± 2.49 b %. For the same molecule, the Percent survival ([2]; wood slices 1000 mg/l, Day 5, Worker) was 13.0 ± 9.85 b %, the Percent survival ([2]; wood slices 1000 mg/l, Day 10, Soldier) was 0.0 ± 0.0 b % and the Percent survival ([2]; wood slices 1000 mg/l, Day 10, Worker) was 5.67 ± 4.27 b %. The longevity [3] was “highest longevity”, the volatility [3] was “lowest volatility” and the “feeding activity after 8 days exposure” value (C. formosanus workers) was “negligible”. For the same molecule, the worker distribution (C. formosanus workers) was “workers avoided the treated side”.

Reference: patent US7351744B2, “Naphthalene derivatives as termite repellents and toxicants” (Board of Supervisors of Louisiana State University and …, priority 2003, dated 2008)
